{"source": "patent US20110182982A1", "about": "“LIPOSOME TREATMENT OF VIRAL INFECTIONS” (University of Oxford, priority 2006, published 2011)", "key": {"[1]": {"assay": "pH sensitivity of DCPP liposomes (calcein leakage)", "type": "physicochemical", "conditions": "1 mM encapsulated, pH 5.0-7.4, vs calcein only liposomes", "procedure": "DCPP liposomes encapsulating 1-mM DNJ, NB-DNJ, or NN-DNJ in 80-mM calcein buffer were compared with empty (calcein only) liposomes to determine the effects of the alkyl chain of NB-DNJ and NN-DNJ on the pH-sensitivity. 10 μl of calcein-loaded DCPP liposomes (final phospholipid concentration, 5 μM) was added to 2 ml of MES-buffered saline at various pH values ranging from 5.0-7.4, and left to incubate with shaking 15 min at 37° C. Following incubation, calcein fluorescence was measured before and after the addition of Triton to a final concentration of 0.1%. Fluorescence intensities obtained at acidic pH values were corrected for the slight effect of pH on calcein fluorescence. The percentage of calcein release at each pH was calculated using the formula: % leakage=((in−I0)/(I100−I0))×100, where I0 is the fluorescence at neutral pH, In is the corrected intensity at acidic pH before the addition of Triton, and I100 is the total dequenched calcein at neutral pH."}, "[2]": {"system": "CHO cells", "assay": "Liposome uptake (Rh-PE) and intracellular calcein dequenching", "type": "cell-based, Chinese hamster", "procedure": "The effects of different DNJ compounds on the cellular uptake and intracellular release, when encapsulated inside DCPP liposomes, was determined by diluting compounds in 80-mM calcein and incorporating Rh-PE in liposome membranes as previously described, with the final liposome composition being DOPE:CHEMS:PEG-PE:Rh-PE (DCPP-Rh, 6:4:0.3:0.1) Liposomes encapsulating calcein alone, 10-μM DNJ, 1-mM DNJ, 10-μM NB-DNJ, 1-mM NB-DNJ, 10-μM NN-DNJ, or 1-mM NN-DNJ, were incubated with CHO cells for 45 min before liposomes were removed and cells were washed twice in 1×PBS. Cells were then analyzed in a fluorometer to measure calcein dequenching (λex=490 and λem=520 nm) and rhodamine fluorescence (λex=584 and λem=612 nm). Data represent the mean±S.D. obtained from triplicates of four independent experiments, where mean rhodamine fluorescence values reflect the binding and uptake of liposomes and the mean calcein fluorescence reflects the intracellular dequenching of the dye (i.e. dye released from liposomes into intracellular compartments). Results are expressed as the percent fluorescence measured following incubation with DNJ-containing liposomes as compared to the calcein/PBS-only liposome control (=100% on the x axis).\nThe calculated ratio of calcein to rhodamine fluorescence is taken as a measure of the amount of aqueous marker released per cell-associated liposome, and represents the efficiency of intracellular delivery."}, "[3]": {"system": "HIV-1 isolate: 97USNG30", "assay": "p24 secretion of HIV-1-infected PBMCs", "type": "cell-based", "conditions": "for % p24 secretion Week 1-rb / % p24 secretion Week 2-rb / % p24 secretion Week 3-rb / % p24 secretion Week 4-rb: treatment removed 2 weeks", "procedure": "Clearance of HIV-1 primary isolates from infected human cells by NB-DNJ was assessed using phytohemagglutinin (PHA)-activated peripheral blood mononuclear cells (PBMCs) as indicator cells and the determination of p24 antigen production as the end point.\nPBMCs from four normal (uninfected) donors were isolated, pooled, and stimulated with PHA (5 μg/ml) for 48 h followed by PHA plus interleukin-2 (40 U/ml) for 72 h in RPMI 1640 medium containing 10% heat-inactivated fetal bovine serum (FBS), 100 U of penicillin per ml, 100 μg of streptomycin per ml, and 2 mM L-glutamine. All experiments were performed in 96-well microtiter plates. To infect cells, 100 μl of PHA-activated PBMCs (5×10^5/ml) was added to each well, after which an equal volume containing 100 50% tissue culture infective doses (TCID50) of primary isolate stock was added. After an overnight incubation, the cells were washed three times with tissue culture medium, and finally re-suspended in medium containing the appropriate liposome treatment or free NB-DNJ. On day 7, approximately 10-30% of the culture volume containing secreted HIV-1 virions was used to infect naïve PBMCs for a second round of infection and treatment (volume transferred was calculated to be the volume necessary for the untreated control of that isolate to infect naïve cells at a TCID50=100). Rounds of treatment and infection of naïve cells were continued over four weeks, and at every time point cellular supernatant containing secreted virions was isolated and used in capture ELISAs to determine p24 concentration (measure of secretion). Additionally, supernatant isolated at each time point throughout treatment was used to infect naïve PBMCs (TCID50=100) for two weeks with no further treatment, which allowed for the observation of a rebound in viral activity.\nPBMCs infected with 8 primary isolates (listed in Table 3) were incubated in the presence of free NB-DNJ (concentrations ranging 0-1 mM) or liposome-encapsulated NB-DNJ (0-3.75 μM, final lipid concentration of 50 μM)."}}, "data": [{"smiles": "CCCCN1C[C@H](O)[C@@H](O)[C@H](O)[C@H]1CO", "note": "[NB-DNJ, N-butyl-1,5-dideoxy-1,5-imino-D-glucitol]", "values": [{"measurement": "pH sensitivity / stability of DCPP liposomes", "setting": "[1]", "result": "significant decrease in pH sensitivity"}, {"measurement": "Efficiency (calcein/rhodamine, AU)", "setting": "[2]; 10 μM encapsulated in DCPP liposomes", "result": "21.7 ± 1.5", "unit": "AU"}, {"measurement": "increase of efficiency of intracellular delivery", "setting": "[2]; 10 μM in DCPP liposomes", "result": "approximately 2 fold"}, {"measurement": "Efficiency (calcein/rhodamine, AU)", "setting": "[2]; 1 mM encapsulated in DCPP liposomes", "result": "28.4 ± 2.4", "unit": "AU"}, {"measurement": "increase of efficiency of intracellular delivery", "setting": "[2]; 1 mM in DCPP liposomes", "result": "~3", "unit": "fold"}, {"measurement": "increase in dequenched calcein", "setting": "[2]; 1-mM formulation in DCPP-Rh liposomes", "result": "~2.3", "unit": "fold"}, {"measurement": "increase in dequenched calcein", "setting": "[2]; 10-μM formulation in DCPP-Rh liposomes", "result": "~1.8", "unit": "fold"}, {"measurement": "% p24 secretion Week 1", "setting": "[3]; NB-DNJ 250 uM", "result": 96, "unit": "%"}, {"measurement": "% p24 secretion Week 2", "setting": "[3]; NB-DNJ 250 uM", "result": 102, "unit": "%"}, {"measurement": "% p24 secretion Week 3", "setting": "[3]; NB-DNJ 250 uM", "result": 100, "unit": "%"}, {"measurement": "% p24 secretion Week 4", "setting": "[3]; NB-DNJ 250 uM", "result": 95, "unit": "%"}, {"measurement": "% p24 secretion Week 1-rb", "setting": "[3]; NB-DNJ 250 uM", "result": 112, "unit": "%"}, {"measurement": "% p24 secretion Week 2-rb", "setting": "[3]; NB-DNJ 250 uM", "result": 109, "unit": "%"}, {"measurement": "% p24 secretion Week 3-rb", "setting": "[3]; NB-DNJ 250 uM", "result": 97, "unit": "%"}, {"measurement": "% p24 secretion Week 4-rb", "setting": "[3]; NB-DNJ 250 uM", "result": 101, "unit": "%"}, {"measurement": "% p24 secretion Week 1", "setting": "[3]; NB-DNJ 500 uM", "result": 74, "unit": "%"}, {"measurement": "% p24 secretion Week 2", "setting": "[3]; NB-DNJ 500 uM", "result": 45, "unit": "%"}, {"measurement": "% p24 secretion Week 3", "setting": "[3]; NB-DNJ 500 uM", "result": 8, "unit": "%"}, {"measurement": "% p24 secretion Week 4", "setting": "[3]; NB-DNJ 500 uM", "result": 3, "unit": "%"}, {"measurement": "% p24 secretion Week 1-rb", "setting": "[3]; NB-DNJ 500 uM", "result": 82, "unit": "%"}, {"measurement": "% p24 secretion Week 2-rb", "setting": "[3]; NB-DNJ 500 uM", "result": 19, "unit": "%"}, {"measurement": "% p24 secretion Week 3-rb", "setting": "[3]; NB-DNJ 500 uM", "result": 7, "unit": "%"}, {"measurement": "% p24 secretion Week 4-rb", "setting": "[3]; NB-DNJ 500 uM", "result": 1, "unit": "%"}, {"measurement": "% p24 secretion Week 1", "setting": "[3]; NB-DNJ 1000 uM", "result": 46, "unit": "%"}, {"measurement": "% p24 secretion Week 2", "setting": "[3]; NB-DNJ 1000 uM", "result": 9, "unit": "%"}, {"measurement": "% p24 secretion Week 3", "setting": "[3]; NB-DNJ 1000 uM", "result": 0, "unit": "%"}, {"measurement": "% p24 secretion Week 4", "setting": "[3]; NB-DNJ 1000 uM", "result": 0, "unit": "%"}, {"measurement": "% p24 secretion Week 1-rb", "setting": "[3]; NB-DNJ 1000 uM", "result": 53, "unit": "%"}, {"measurement": "% p24 secretion Week 2-rb", "setting": "[3]; NB-DNJ 1000 uM", "result": 3, "unit": "%"}, {"measurement": "% p24 secretion Week 3-rb", "setting": "[3]; NB-DNJ 1000 uM", "result": 0, "unit": "%"}, {"measurement": "% p24 secretion Week 4-rb", "setting": "[3]; NB-DNJ 1000 uM", "result": 0, "unit": "%"}]}]}
